Results: PMC9507378 (Advanced Science, 2022)
Converted amounts (≈) assume the structure as drawn.

Assays:
OP9 cells [1] = assay: CCK-8 cell viability assay; format: cell-based; conditions: 48 h, CCK-8, n = 6, tested 6.25 to 100 µg mL^−1, read-out: concentration showing the median inhibitory effect on OP9 cells
Procedure: macropinocytosis, actin microfilament, and microtubule. The OP9 cells were pretreated with five inhibitors separately in 2% FBS culture media for 1 h, then the culture media was replaced with new culture media simultaneously containing OGP-tFNAs-Cy5 and different inhibitors for another 6 h. After that, the samples were collected for flow cytometric analysis and confocal microscopy observation for fluorescence intensity detection.
Cell viability assay: Cell Counting Kit-8 (CCK-8) assay was applied to detect the cell viability after treatment with tFNAs, OGP and OGP-tFNAs with different […]
Cell cycle, senescence and apoptosis detection: Cell cycle and apoptosis were detected via flow cytometric analysis. […]
treatment (25 μg/mL). The cell cycle was detected using cell cycle detection Kit (KeyGEN, Jiangsu, China). […] After that, the samples were rinsed with PBS and incubated with RNase for 30 min in 37℃ water-bath, then incubated with Propidium Iodide (PI) for 30min and detected via flow cytometry. The cell apoptosis was detected using Annexin V-FITC/PI apoptosis detection kit (KeyGEN, Jiangsu, China).
After the cells were collected and resuspended with 500 μL binding buffer, 5 μL Annexin V-FITC and 5 μL PI were added into the binding buffer. After 5-15 min incubation, the samples were detected via flow cytometry. […]

OP9 cells [2] = assay: Apoptosis by flow cytometry (Annexin V-FITC/PI); format: cell-based; conditions: 5-FU group, 25 µg mL^−1, 24 h
Procedure: Cell cycle, senescence and apoptosis detection: Cell cycle and apoptosis were detected via flow cytometric analysis. OP9 cells were cultured in 6-well plates and
treatment (25 μg/mL). […] The cell apoptosis was detected using Annexin V-FITC/PI apoptosis detection kit (KeyGEN, Jiangsu, China).

[3] = test system: SCF production in OP9 cells; assay: SCF expression (immunofluorescence, Western blot); format: cell-based; conditions: 25 µg mL^−1 5-FU, 24 h; n = 3
Procedure: staining buffer (2% FBS in PBS), then immunofluorescent staining was performed for later flow cytometry (PE anti-γ-H2AX, Biolegend, 1:20).
Western blotting: The total protein was extracted using Total Protein Extraction Kit (KeyGEN, Jiangsu, China) according to the standard protocol. After protein extraction and boiling denaturation, the proteins were separated using 10-15% SDS-PAGE and transferred to PVDF membranes. Then the samples were blocked with blocking buffer (QuickBlock™ Blocking Buffer, Beyotime Biotechnology, Shanghai, China) for 15min, and then incubated with related primary antibodies (anti-GAPDH, CST, 1:1000; anti-Bcl-2, CST, […]; anti-Bax, CST; anti-Caspase-3, […]
1:500; anti-γ-H2AX, abcam, 1:5000) overnight at 4 ℃. At the second day, the samples were incubated with related secondary antibodies for 1h and detected using Gel & Blot Imaging system (ChemiDoc MP, Bio-Rad, USA). […]
another 24-h 5-FU treatment. […] Finally, the samples were detected using fluorescence confocal microscope (FV3000, Olympus, Japan).
Plasma pharmacokinetics: Plasma pharmacokinetics experiment was performed to investigate the in vivo metabolism of tFNAs and OGP-tFNAs. tFNAs-Cy5 and OGP-tFNAs-Cy5 were administrated via tail vein injection. […] Finally, the blood samples were detected using the channel of Cy5 fluorescence of Gel & Blot Imaging system (ChemiDoc MP, Bio-Rad, USA). […]

OP9 cells [4] = assay: Cellular internalization mechanism of OGP-tFNAs with endocytosis inhibitors; format: cell-based; conditions: 1 h inhibitor pretreatment in 2% FBS medium then 6 h with OGP-tFNAs-Cy5, 20 μM for Dynasore and Cytochalasin D, flow cytometry, n = 3
Procedure: Cell culture and treatment: Bone marrow stromal OP9 cells were purchased from
National Collection of Authenticated Cell Cultures (Shanghai, China). The cells were
cultured in α-MEM with 1% penicillin-streptomycin and 20% FBS at 37 ° C in 5%
CO2. When the cell intensity approached 80%-90%, OP9 cells were recultivated in
internalization of tFNAs, and the influence of tFNAs as drug carriers on the cellular
labeled with FITC fluorescence. After the cells were treated with tFNAs-Cy5 and
harvested for flow cytometric analysis (Attune® NxT, Invitrogen, USA) and confocal
fluorescence microscopy observation (FV3000, Olympus, Japan).
(Methyl-β-cyclodextrin, MedChemExpress, USA; Dynasore, MedChemExpress, USA;
Nocodazole, MedChemExpress, USA; Amiloride hydrochloride, Abcam, USA;
Cytochalasin D, Abcam, USA) were used to inhibit the clathrin, caveolae,

ICR mice = conditions: mouse, in vivo, ip, 150 mg/kg
Procedure: 6–8 weeks male ICR mice (Dossy Experimental Animals Co, Ltd., Chengdu, China) were raised in specific pathogen‐free (SPF) environment with stable temperature and 12 h light/dark cycle.
Myelosuppression induction and systematic drug delivery: The mice were divided
into five groups: 1) Control group; 2) Saline + myelosuppression group; 3) tFNAs +
myelosuppression group. For myelosuppression groups, the mice were continuously
intraperitoneal injection (i.p.) for 3 days (days 4-6) for myelosuppression induction.
For normal group, the same volume of saline was delivered via tail intravenous
injection at days 1-9 and PBS via intraperitoneal injection at days 4-6. At day 10, all
the mice were sacrificed for later detections.
Histological detections: As main hematopoietic organs, femurs and sternums were
collected and fixed in 4% paraformaldehyde. After decalcification for 3-4 weeks in
EDTA decalcifying solution (Servicebio, Wuhan, China), the samples were
dehydrated and embedded in paraffin. Then, the samples were coronally sectioned
along the long axis of the femurs and sternums, then Hematoxylin-Eosin (H&E)
staining was performed to observe the histological changes. Meanwhile, as major

In the case of `O=c1[nH]cc(F)c(=O)[nH]1` [5-FU, 5‐fluorouracil], the IC50 (OP9 cells [1]) is reported as 25 µg/mL (≈ 192 µM), the “number of dead OP9 cells” value (OP9 cells [2]) is reported as “≈ 30%” and the “reduction of SCF production in OP9 cells” value [3] is reported as “≈ 50%”.

For `C=C1[C@@H](C)[C@H]2[C@H](Cc3ccccc3)NC(=O)[C@]23[C@H](OC(C)=O)/C=C/[C@@](C)(O)C(=O)[C@@H](C)C/C=C/[C@H]3[C@@H]1O` [Cytochalasin D], the “inhibition of internalization of OGP-tFNAs” value (OP9 cells [4]) was “more significant inhibition ratios”.

With `O=C(N/N=C/c1ccc(O)c(O)c1)c1cc2ccccc2cc1O` [Dynasore] the “inhibition of internalization of OGP-tFNAs” value (OP9 cells [4]) was “more significant inhibition ratios”.

With `O=P1(N(CCCl)CCCl)NCCCO1` (stereo not drawn) [cyclophosphamide] the “share of the bone marrow cavity filled by bone marrow cells” value (ICR mice) was 20–30%.
